Results: patent publication US20230330045A1 (priority 2020, published 2023)
Where two headings read alike, the source gives them in different places.

Molecular target: eel acetylcholinesterase (AChE) (Electrophorus electricus, UniProt O42275)
Test: Eel AChE fluorescence assay (AMPLEX Red kit)
Assay type: biochemical
Conditions: for inhibition of AChE activity (in words): eel AChE, 20 μM
Procedure: Enzymatic reactions consisted of 50 μM acetylcholine, 200 μM AIVIPLEX™ Red reagent, 1 U/mL horseradish peroxidase, 0.1 U/mL choline oxidase and 0.096 U/mL acetylcholinesterase, with 30 1% DMSO. […] Control reactions lacking acetylcholinesterase but containing 5 μM H2O2 in presence of compounds were analyzed at the same wavelength to exclude compounds that display assay interference. Dose-response curves were performed in duplicate.

[1] = eel AChE activity, at 20 μM, read-out: Percentage inhibition
[2] = read-out: inhibition of enzyme activity compared to DMSO control (screen)

eel acetylcholinesterase (AChE), sequence (O42275 24-633): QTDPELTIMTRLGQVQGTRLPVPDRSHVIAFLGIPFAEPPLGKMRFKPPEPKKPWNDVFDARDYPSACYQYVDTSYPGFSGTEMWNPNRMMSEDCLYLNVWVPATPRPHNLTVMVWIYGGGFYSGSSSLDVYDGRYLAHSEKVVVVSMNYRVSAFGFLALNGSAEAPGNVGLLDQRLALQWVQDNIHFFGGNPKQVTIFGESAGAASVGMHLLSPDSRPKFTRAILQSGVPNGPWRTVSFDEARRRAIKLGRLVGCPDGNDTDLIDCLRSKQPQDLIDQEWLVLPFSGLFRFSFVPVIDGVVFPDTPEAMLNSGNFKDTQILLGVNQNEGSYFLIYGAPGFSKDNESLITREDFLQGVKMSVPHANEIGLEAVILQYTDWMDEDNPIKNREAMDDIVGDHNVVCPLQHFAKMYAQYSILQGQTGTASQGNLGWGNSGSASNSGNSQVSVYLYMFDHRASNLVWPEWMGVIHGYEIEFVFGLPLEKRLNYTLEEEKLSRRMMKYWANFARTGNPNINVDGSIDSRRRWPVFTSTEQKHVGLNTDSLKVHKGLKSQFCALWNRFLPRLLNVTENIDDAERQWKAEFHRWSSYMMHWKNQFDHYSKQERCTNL

O=C1c2cc(O)ccc2-c2ccc(O)cc21 [2,7-dihydroxy-9H-fluoren-9-one]
inhibition at 20 µM [1]: 30% | inhibition of AChE activity (in words): neither fluorenone, nor the close derivative 2,7-dihydroxy-9H-fluoren-9-one inhibit AChE activity

CCN(CC)CCNc1ccc(C)c2sc3ccccc3c(=O)c12 [lucanthone]
inhibition at 20 µM [1]: 11% | inhibition of AChE activity (in words): did not show appreciable activity

CO[C@H]1/C=C/O[C@@]2(C)Oc3c(C)c(O)c4c(O)c(c5c(nc6cc(C)ccn65)c4c3C2=O)NC(=O)/C(C)=C\C=C\[C@H](C)[C@H](O)[C@@H](C)[C@@H](O)[C@@H](C)[C@H](OC(C)=O)[C@@H]1C [rifaximin]
inhibition at 20 µM [2]: ≥ 50%

Nc1c2ccccc2nc2ccccc12 [aminacrine]
inhibition at 20 µM [1]: 99.2%

COc1ccc2nc3cc(Cl)ccc3c(Nc3cc(CN4CCCC4)c(O)c(CN4CCCC4)c3)c2n1 [pyronaridine]
inhibition at 20 µM [1]: 53.6% | inhibition at 20 µM [2]: > 50%
